Biological target: skeletal myofibrils (myosin ATPase activity)
Experiment: Skeletal Myofibril ATPase Assay
Format: biochemical
Conditions: PK-LDH coupled, absorbance at 340 nm
Method: Overview: Myosin ATPase activity is assessed by using a coupled reaction system, in which ADP generated by the myosin ATPase function is coupled to the disappearance of NADH through the pyruvate kinase/lactate dehydrogenase (PK-LDH) system. Myosin ATPase activity produces ADP, which is used as a substrate for PK to produce pyruvate and regenerate ATP. The pyruvate is then used as a substrate by LDH to oxidize NADH to NAD+. The rate of the reaction is monitored through the time-dependent disappearance of NADH using absorbance at 340 nm. Inhibition of ATPase activity by the assayed compounds is indicated by a reduced rate of NADH loss, relative to vehicle-treated controls, over the experimental time window. To assess the selectivity of the assayed compounds for skeletal myofibrils, the compounds are counter-screened in cardiac myofibrils.
Materials: The following stock solutions and reagents were used in the Skeletal Myofibril ATPase Assay:
Stock Solutions of pCa buffer. Combine PIPES, CaCl2, and EGTA solutions with 70 mL of water. Adjust pH to 7.0 and bring final volume to 100 mL.
Skeletal Myofibril ATPase Assay Procedure: BSA, ATP, NADH, PEP, and DTT solutions were thawed at room temperature, then transferred to ice. Pellet-frozen myofibrils (approximately twice the required volume) were transferred into a sufficiently large tube and capped. Myofibrils were thawed by rolling in a water bath for approximately 15 min at room temperature and cooled on ice. Buffers A and B were prepared by adjusting volumes as necessary for required number of wells and stored on ice. 0.5 μL of the compounds to be assayed were added into wells of a 384-well plate. Buffers A and B were mixed by inversion immediately prior to use, then 25 μL of each was dispensed using a Multidrop dispenser (Buffer A first, then Buffer B). The absorbance within the wells was measured at 340 nm, using a kinetic protocol in which the wells are read every 1.5-2 min for 1 h. The reaction rate was qualitatively assessed by subtracting the minimum absorbance value from the maximum value for each well, using either the SoftMax Pro plate reader software or a spreadsheet program such as Excel. Using GraphPad Prism 8.0, the data was normalized, with 100% activity defined as the absorbance change in the 1% DMSO vehicle wells and 0% assigned to no change in absorbance over the course of the experiment. The normalized data were fit to a variable-slope four-parameter logistic model, constraining the bottom to be 0 or greater. Compounds of Table 1 to 4 were tested and results of the assay appear in Table 5 herein. A=IC50 is less than or equal to 10 μM; B=IC50 is greater than 10 μM and less than 100 μM; C=IC50 is greater than 100 μM; […].

Structure (SMILES)	IC50
O=c1ccc(-c2cnc(OCC(F)(F)F)nc2)nn1Cc1cncc(Cl)c1 [Compound 1, 2-((5-chloropyridin-3-yl)methyl)-6-(2-(2,2,2-trifluoroethoxy)pyrimidin-5-yl)pyridazine-3(2H)-one]	< 10 µM
O=c1ccc(-c2ccc(OC(F)F)nc2)nn1Cc1cncc(Cl)c1 [Compound 2]	< 10 µM
O=c1ccc(-c2ccc(OC(F)F)nc2)nn1Cc1cncc(F)c1 [Compound 9]	< 10 µM
O=c1ccc(-c2ccc(OC(F)F)nc2)nn1Cc1cccnc1 [Compound 10]	10 to 100 µM
O=c1ccc(-c2ccc(OC(F)F)nc2)nn1Cc1nnc(-c2ccc(F)cc2)s1 [Compound 17]	< 10 µM
O=c1ccc(-c2ccc(OC(F)F)nc2)nn1Cc1nnc(-c2ccccc2)s1 [Compound 22]	< 10 µM
O=c1ccc(-c2ccc(OC(F)F)nc2)nn1Cc1cn[nH]c1-c1ccccc1 [Compound 23, 6-(6-(difluoromethoxy)pyridin-3-yl)-2-((5-phenyl-1H-pyrazol-4-yl)methyl)pyridazin-3(2H)-one]	> 100 µM
O=c1ccc(-c2ccc(OC(F)F)nc2)nn1Cc1ocnc1-c1ccccc1 [Compound 24, 6-(6-(difluoromethoxy)pyridin-3-yl)-2-((4-phenyloxazol-5-yl)methyl)pyridazin-3(2H)-one]	> 100 µM
O=c1ccc(-c2ccc(OC(F)F)nc2)nn1Cc1[nH]ncc1-c1ccccc1 [Compound 25, 6-(6-(difluoromethoxy)pyridin-3-yl)-2-((4-phenyl-1H-pyrazol-5-yl)methyl) pyridazin-3(2H)-one]	> 100 µM
O=c1ccc(-c2cnc(OCC(F)(F)F)nc2)nn1Cc1cc(C(F)F)no1 [Compound 26, 2-((3-(difluoromethyl)isoxazol-5-yl)methyl)-6-(2-(2,2,2-trifluoroethoxy)pyrimidin-5-yl)pyridazin-3(2H)-one]	< 10 µM
CC1CCCN1c1ncc(-c2ccc(=O)n(Cc3cncc(F)c3)n2)cn1 (stereo not drawn) [Compound 28, 2-((5-fluoropyridin-3-yl)methyl)-6-(2-(2-methylpyrrolidin-l-yl)pyrimidin-5-yl)pyridazin-3(2H)-one]	< 10 µM
O=c1ccc(-c2cnc(OCC(F)(F)F)nc2)nn1Cc1cc(C2CC2)no1 [Compound 31, 2-((3-cyclopropylisoxazol-5-yl)methyl)-6-(2-(2,2,2-trifluoroethoxy)pyrimidin-5-yl)pyridazin-3(2H)-one]	< 10 µM
CC(=O)c1cc(Cn2nc(-c3cnc(OCC(F)(F)F)nc3)ccc2=O)on1 [Compound 33, 2-((3-acetylisoxazol-5-yl)methyl)-6-(2-(2,2,2-trifluoroethoxy)pyrimidin-5-yl)pyridazin-3(2H)-one]	< 10 µM
Cc1cnoc1Cn1nc(-c2cnc(OCC(F)(F)F)nc2)ccc1=O [Compound 34, 2-((4-methylisoxazol-5-yl)methyl)-6-(2-(2,2,2-trifluoroethoxy)pyrimidin-5-yl)pyridazin-3(2H)-one]	< 10 µM
CCOC(=O)c1cc(Cn2nc(-c3cnc(OCC(F)(F)F)nc3)ccc2=O)on1 [Compound 37, ethyl 5-((6-oxo-3-(2-(2,2,2-trifluoroethoxy)pyrimidin-5-yl)pyridazin-1(6H)-yl)methyl) isoxazole-3-carboxylate]	< 10 µM
O=c1ccc(-c2cnc(OCC(F)(F)F)nc2)nn1Cc1cc(CO)no1 [Compound 43, 2-((3-(hydroxymethyl)isoxazol-5-yl)methyl)-6-(2-(2,2,2-trifluoroethoxy)pyrimidin-5-yl)pyridazin-3(2H)-one]	10 to 100 µM
Cc1noc(Cn2nc(-c3cnc(OCC(F)(F)F)nc3)ccc2=O)c1C [Compound 49, 2-((3,4-dimethylisoxazol-5-yl)methyl)-6-(2-(2,2,2-trifluoroethoxy)pyrimidin-5-yl)pyridazin-3(2H)-one]	> 100 µM
CN(CC(F)(F)F)c1ncc(-c2ccc(=O)n(Cc3cncc(F)c3)n2)cn1 [Compound 50, 2-((5-fluoropyridin-3-yl)methyl)-6-(2-(methyl(2,2,2-trifluoroethyl)amino)pyrimidin-5-yl)pyridazin-3(2H)-one]	< 10 µM
N#Cc1cncc(Cn2nc(-c3cnc(OCC(F)(F)F)nc3)ccc2=O)c1 [Compound 51, 5-((6-oxo-3-(2-(2,2,2-trifluoroethoxy)pyrimidin-5-yl)pyridazin-1(6H)-yl)methyl)nicotinonitrile]	< 10 µM

Further lines, results first:

IC50	Structure (SMILES)
< 10 µM	O=c1ccc(-c2cnc(OCC(F)(F)F)nc2)nn1Cc1cncc(F)c1 [Compound 6, 2-((5-fluoropyridin-3-yl)methyl)-6-(2-(2,2,2-trifluoroethoxy)pyrimidin-5-yl)pyridazine-3(2H)-one]
< 10 µM	O=c1ccc(-c2cnc(OCC(F)(F)F)nc2)nn1Cc1cc(-c2ccccc2)no1 [Compound 27, 2-((3-phenylisoxazol-5-yl)methyl)-6-(2-(2,2,2-trifluoroethoxy)pyrimidin-5-yl)pyridazin-3(2H)-one]
< 10 µM	O=c1ccc(-c2cnc(OCC(F)(F)F)nc2)nn1Cc1cc(-c2ccccn2)no1 [Compound 30, 2-((3-(pyridin-2-yl)isoxazol-5-yl)methyl)-6-(2-(2,2,2-trifluoroethoxy)pyrimidin-5-yl)pyridazin-3(2H)-one]
< 10 µM	NC(=O)c1cc(Cn2nc(-c3cnc(OCC(F)(F)F)nc3)ccc2=O)on1 [Compound 32, 5-((6-oxo-3-(2-(2,2,2-trifluoroethoxy)pyrimidin-5-yl)pyridazin-1(6H)-yl)methyl)isoxazole-3-carboxamide]
< 10 µM	O=c1ccc(-c2cnc(OCC(F)(F)F)nc2)nn1Cc1nnc(-c2ccccn2)s1 [Compound 38, 2-((5-(pyridin-2-yl)-1,3,4-thiadiazol-2-yl)methyl)-6-(2-(2,2,2-trifluoroethoxy)pyrimidin-5-yl)pyridazin-3(2H)-one]
< 10 µM	Cc1c(-c2ccccc2)noc1Cn1nc(-c2cnc(OCC(F)(F)F)nc2)ccc1=O [Compound 39, 2-((4-methyl-3-phenylisoxazol-5-yl)methyl)-6-(2-(2,2,2-trifluoroethoxy)pyrimidin-5-yl)pyridazin-3(2H)-one]
< 10 µM	O=c1ccc(-c2cnc(OCC(F)(F)F)nc2)nn1Cc1nnc(-c2cccnc2)s1 [Compound 40, 2-((5-(pyridin-3-yl)-1,3,4-thiadiazol-2-yl)methyl)-6-(2-(2,2,2-trifluoroethoxy)pyrimidin-5-yl)pyridazin-3(2H)-one]
< 10 µM	Cc1ccc(Cn2nc(-c3cnc(OCC(F)(F)F)nc3)ccc2=O)nn1 [Compound 41, 2-((6-methylpyridazin-3-yl)methyl)-6-(2-(2,2,2-trifluoroethoxy)pyrimidin-5-yl)pyridazin-3(2H)-one]
10 to 100 µM	O=c1ccc(-c2cnc(OCC(F)(F)F)nc2)nn1Cc1ccnc(O)c1 [Compound 42, 2-((2-hydroxypyridin-4-yl)methyl)-6-(2-(2,2,2-trifluoroethoxy)pyrimidin-5-yl)pyridazin-3(2H)-one]
10 to 100 µM	O=c1ccc(-c2cnc(OCC(F)(F)F)nc2)nn1Cc1nnc(-c2ccnc(O)c2)s1 [Compound 44, 2-((5-(2-hydroxypyridin-4-yl)-1,3,4-thiadiazol-2-yl)methyl)-6-(2-(2,2,2-trifluoroethoxy)pyrimidin-5-yl)pyridazin-3(2H)-one]
10 to 100 µM	O=c1ccc(-c2cnc(OCC(F)(F)F)nc2)nn1Cc1nnc(-c2ccc(O)nc2)s1 [Compound 45, 2-((5-(6-hydroxypyridin-3-yl)-1,3,4-thiadiazol-2-yl)methyl)-6-(2-(2,2,2-trifluoroethoxy)pyrimidi-5-yl)pyridazin-3(2H)-one]
> 100 µM	O=c1ccc(-c2cnc(OCC(F)(F)F)nc2)nn1Cc1cccc(O)n1 [Compound 46, 2-((6-hydroxypyridin-2-yl)methyl)-6-(2-(2,2,2-trifluoroethoxy)pyrimidin-5-yl)pyridazin-3(2H)-one]
> 100 µM	O=c1ccc(-c2cnc(OCC(F)(F)F)nc2)nn1Cc1cccnc1O [Compound 47, 2-((2-hydroxypyridin-3-yl)methyl)-6-(2-(2,2,2-trifluoroethoxy)pyrimidin-5-yl)pyridazin-3(2H)-one]
< 10 µM	Cc1ncc(Cn2nc(-c3cnc(OCC(F)(F)F)nc3)ccc2=O)cc1F [Compound 52, 2-((5-fluoro-6-methylpyridin-3-yl)methyl)-6-(2-(2,2,2-trifluoroethoxy)pyrimidin-5-yl)pyridazin-3(2H)-one]
< 10 µM	O=c1ccc(-c2cnc(OCC(F)(F)F)nc2)nn1Cc1cnco1 [Compound 53, 2-(oxazol-5-ylmethyl)-6-(2-(2,2,2,- trifluoroethoxy)pyrimidin-5-yl)pyridazin-3(2H)-one]
